{
  "source": "patent US20220218834A1",
  "about": "“APOHEMOGLOBIN-HAPTOGLOBIN COMPLEXES AND METHODS OF USING THEREOF” (OHIO STATE INNOVATION FOUNDATION, priority 2019, published 2022)",
  "key": {"[1]": {"assay": "Stability of apoHb-Al-PC on dialysis against PBS", "type": "physicochemical", "experimental": "Stability of ApoHb-Al-PC. […] The sample was then dialyzed against PBS using 6-8 kDa cellulose dialysis membranes to remove any residual EtOH. Dialysis was performed over three days with daily exchange of the PBS buffer. The UV-visible absorbance spectra of samples were measured before and after dialysis."}, "[2]": {"test_system": "Hp", "settings": "cited from earlier work"}, "[3]": {"assay": "O2 equilibrium binding curves of rHb and native Hb (Hemox analyzer)", "type": "biochemical", "settings": "37° C.; for P50: O2 affinity; for N (cooperativity coefficient n): O2 equilibrium", "experimental": "rHb Analysis. Various liganded forms of rHb were analyzed via UV-Vis spectroscopy and compared against native Hb. The oxy-rHb and oxyHb equilibrium binding curves were measured using a Hemox analyzer (TCS Scientific Corp., New Hope, Pa.) at 37° C. The spectra of rHb was measured after one day reaction with excess heme (stage 1), after reduction and diafiltration with the modified HEMOX buffer (stage 2), after placing the rHb mixture under a CO atmosphere (stage 3), after heating the CO-rHb mixture and removing precipitate (stage 4), and after re-oxygenating the rHb sample (stage 5). Spectral deconvolution software was developed in the Python programming language (Python Software Foundation Beaverton, Oreg.) using the non-linear least squares function curve_fit of the SciPy package to determine the fraction of various liganded forms of rHb that contribute to the final spectra of the rHb mixture (i.e. containing metHb, hemichrome, oxyHb, HbCO and heme)."}, "[4]": {"assay": "Specificity of Al-PC binding to proteins (UV-visible absorbance at 680 nm)", "settings": "absorbance at 680 nm after Al-PC addition in PBS", "quoted_text": "The stock Al-PC solution was diluted 100× into 100% EtOH.\nThe concentrations of Hp, HSA, Hb and rHb in solution were 1.0 mg/mL, 0.35 mg/ml (and 3.5 mg/ml), 0.35 mg/mL, and 0.33 mg/mL respectively."}, "[5]": {"assay": "Rheology of PolyHb solutions (cone and plate rheometer)", "type": "physicochemical", "excerpt": "(§1) The Hb used in this exampler was purified from human RBCs via tangential flow filtration (TFF), as described previously. Hb was polymerized with glutaraldehyde under complete deoxygenation in the tense (T) quaternary state at a 25:1 molar ratio of glutaraldehyde to Hb. After polymerization, PolyHb was clarified, purified, and buffer exchanged into a modified Ringer's lactate solution using TFF. Modified polyester sulfone hollow fiber filters with a molecular weight cutoff (MWCO) of 100 kDa were used to remove unpolymerized Hb from solution. The PolyHb solution was concentrated to 12 g/dL. […] The size distribution of PolyHb, by particle volume, was measured using dynamic light scattering (DLS) (Brookhaven Instrument Inc. BS-200M, Holtsville, N.Y.). The rheology of PolyHb solutions was measured using a DV3T-CP cone and plate rheometer (Brookfield AMETEK, Middleboro, Mass.) with cone spindle CPA-40Z. The O2-Hb/PolyHb equilibrium binding curves were measured using a Hemox Analyzer (TCS Scientific Corp., New Hope, Pa.). The Hb/PolyHb kinetics of O2 offloading (koff,O2) and NO dioxygenation kinetics (kox,NO) were measured with an Applied Photophysics SF-17 microvolume stopped-flow spectrophotometer (Applied Photophysics Ltd., Surrey, United Kingdom) using protocols previously described by Rameez and Palmer. […]"}, "[6]": {"assay": "Hb/PolyHb NO dioxygenation kinetics, stopped-flow", "type": "biochemical", "settings": "20° C., 0.1 M pH 7.4 PBS", "excerpt": "as §1"}, "[7]": {"assay": "O2-Hb/PolyHb equilibrium binding curves (Hemox Analyzer)", "type": "biochemical", "excerpt": "as §1"}, "[8]": {"test_system": "Hp", "assay": "Kinetics of Hp binding to Hb and PolyHb, stopped-flow fluorescence", "set-up": "species or system human", "settings": "20° C., PBS 0.1 M pH 7.4", "experimental": "The Hp used for this study was purified from human Cohn Fraction IV derived from pooled human plasma. The resulting Hp contained both Hp2-1 and Hp2-2 phenotypes. The total amount of protein in solution was estimated with a Bradford assay. The Hb binding capacity of Hp was assessed by monitoring Hb binding to Hp at 413 nm with HPLC-SEC and was used to quantify the concentration of Hp. The reaction of Hp with either unmodified human Hb or PolyHb synthesized in this study was monitored using an SX-20 stopped stopped-flow spectrophotometer using previously described methods (Applied Photophysics, Leatherhead, UK). Excess Hp (2:1, Hp:PolyhHb on a Hb tetramer binding basis) was allowed to react with PolyHb to form the resulting Hp-PolyHb complex. The resulting changes in size distribution after Hp binding was estimated with HPLC-SEC using previously described methods. All measurements were taken from the same sample used in the animal study."}, "[9]": {"test_system": "Hp", "assay": "HPLC-SEC of apoHb-Mn-IX binding to Hp", "set-up": "species or system human", "settings": "excess apoHb, detection of Mn-IX", "experimental": "Diagnostic/therapeutic solutions tested here consisted of either Mn-porphyrin IX chloride (Mn-IX) or aluminum phthalocyanine (Al-PC) chloride. The Mn-IX solution was made by dissolving 2.5 mg of Mn-IX in 0.5 mL of 0.1 M NaOH. For Al-PC, 1 mg of Al-PC was dissolved in 1 mL of pure EtOH, then 50 μL of the saturated solution was diluted into 1 mL of pure EtOH (the second dilution ensured that the Al-PC is monomeric in solution). […] From the stock diagnostic/therapeutic solutions, either 2 μl of the stock Mn-IX or 100 μl of the Al-PC solutions was added to the protein samples. The resultant mixtures had their absorbance spectras measured via UV-visible spectroscopy and were separated via size exclusion chromatography (SEC) using an Acclaim SEC-1000 (4.6×300 mm) column (Thermo Fisher Scientific, Waltham, Mass.) attached to a Dionex UltiMate 3000 system (Thermo Fisher Scientific, Waltham, Mass.). The mobile phase consisted of 50 mM potassium phosphate, pH 7.4."}, "[10]": {"settings": "unit not given; cited from earlier work"}, "[11]": {"test_system": "normal cells (NOR-10, MCF 10A)", "assay": "Cell viability (MTT) without laser irradiation, normal cells", "type": "cell-based, murine and human", "settings": "without laser irradiation (dark)", "experimental": "(§2) Cell Culture. Cancerous (4T1 [murine] and MDA-MB-231 [human]) and noncancerous (NOR-10 [murine] and MCF-10A [human]) cell lines were purchased from American Type Culture Collection (ATCC, Manassas, Va.). All cells were cultured in DMEM, and supplemented with 10% (v:v) fetal bovine serum and 1% (v:v) antibiotic solution (100 IU/mL penicillin and […]). All cells were maintained at 37° C. in 5% CO2 and in a humidified atmosphere.\n(§3) PDT. For PDT, 4T1, MDA-MB-231, NOR-10, and MCF-10A cells were cultured for 24 hours at a density of 5×10^3 on coverslips. Next, cells were exposed to Al-PC, apoHb-Al-PC-Hp, and apoHb-Hp in culture medium at different concentrations. Later, the cells were irradiated with a laser (λ=670 nm) at energy densities between 0.0 J/cm2 and 4 J/cm2 for 15 minutes in the dark.\n(§4) Cell Viability. Cell viability was assessed using the MTT assay, which is converted by the mitochondria of viable cells to an insoluble purple precipitate. Briefly, after receiving their treatment, cells were washed with PBS twice and then incubated with 0.5 mg/mL of MTT in culture medium for 2 hours. Then, the MTT solution was washed away, and the purple precipitate was extracted from the cells with 150 μL of dimethyl sulfoxide (DMSO). The absorption was then measured at λ=595 nm using a spectrophotometer (Spectramax; Molecular Devices)."}, "[12]": {"test_system": "cancerous cells (4T1, MDA-MB-231)", "type": "cell-based", "settings": "without laser irradiation (dark)", "experimental": "as §2, §3, §4"}},
  "data": [
    {"compound": "apoHb-Al-PC: Al-PC bound to apoHb", "values": [
      {"measurement": "stability in aqueous solution", "setting": "[1]", "result": "not stable in aqueous solution"}
    ]},
    {"compound": "hHb: human hemoglobin prepared from red blood cells via tangential flow filtration [reference compound]", "values": [
      {"measurement": "rate constant of Hp binding, literature", "setting": "[2]", "result": 129000, "unit": "M⁻¹ s⁻¹"},
      {"measurement": "P50", "setting": "[3]", "result": "11.69 ± 0.88", "unit": "mm Hg"},
      {"measurement": "P50", "setting": "[3]; listed as Native hHb", "result": "11.33±0.02", "unit": "mm Hg"},
      {"measurement": "P50", "setting": "[3]; listed as native Hb", "result": "11.69±0.88", "unit": "mm Hg"},
      {"measurement": "N (cooperativity coefficient n)", "setting": "[3]", "result": "2.73 ± 0.11^"},
      {"measurement": "N (cooperativity coefficient n)", "setting": "[3]; listed as Native hHb", "result": "2.60±0.01"},
      {"measurement": "N (cooperativity coefficient n)", "setting": "[3]; listed as native Hb", "result": "2.73±0.11"},
      {"measurement": "Al-PC binding", "setting": "[4]", "result": "no appreciable binding of Al-PC"},
      {"measurement": "viscosity", "setting": "[5]", "result": "1.2±0.2", "unit": "cP"},
      {"measurement": "rate of NO dioxygenation kox,NO", "setting": "[6]", "result": "36.0±6.1"},
      {"measurement": "cooperativity n", "setting": "[7]", "result": "2.51±0.06"},
      {"measurement": "oxygen affinity P50", "setting": "[7]", "result": "12.4±1.3", "unit": "mm Hg"},
      {"measurement": "rate constant of Hp binding", "setting": "[8]", "result": "150000 ± 1000", "unit": "M⁻¹ s⁻¹"}
    ]},
    {"compound": "apoHb-Mn-IX: Mn-porphyrin IX bound to apoHb", "values": [
      {"measurement": "affinity of Hp", "setting": "[9]", "result": "higher affinity for apoHb-Mn-IX than to pure apoHb"}
    ]},
    {"compound": "Hb in human RBCs: Hb in human red blood cells, literature O2 affinity", "values": [
      {"measurement": "O2 affinity P50, literature", "setting": "[10]", "result": 29.3}
    ]},
    {"compound": "[Cl][Al]1[n]2c3c4ccccc4c2N=C2N=C(N=c4c5ccccc5c([n]41)=NC1=NC(=N3)c3ccccc31)c1ccccc12", "note": "[Al-PC, aluminum phthalocyanine chloride]", "values": [
      {"measurement": "lethal dose for 50% cell-death (LD50)", "setting": "[11]", "result": 10, "unit": "µM"},
      {"measurement": "lethal dose for 50% cell-death (LD50)", "setting": "[12]", "result": 7, "unit": "µM"}
    ]}
  ]
}
